In patent publication US11337984B2, “Methods for treating, diagnosing and prognosing a haematological malignancy” (Institut de Recerca Contra La Leucèmia Josep Carreras, priority 2014, dated 2022):
“Also recorded” adds a separate entry of the source.

Tests used:
[1] = tested on: primary AML patient samples; experiment: Myeloid differentiation markers on primary patient AML samples; format: cell-based, human; settings: 0.1, 1 and 10 μM, 72 h
Method: FIG. 6. […] The surface expression of CD11b, CD14 and CD15 was detected by flow cytometry. […] 9 primary AML samples were analyzed in triplicates. Each symbol represents a specific AML patient.
FIG. 7. […] The surface expression of CD11b, CD14 and CD15 was detected by flow cytometry. […] 9 primary AML samples were analyzed in triplicates. Each symbol represents a specific AML patient.

primary AML samples = experiment: Clonogenic capacity (CFU-B) of primary AML samples in methylcellulose; format: cell-based, human; settings: 10 μM for 18 h, then 14 days in methylcellulose
Method: FIG. 10. The clonogenic capacity of primary AML samples is reduced upon 5HTR antagonist treatment. […] Cells were then cultivated in Methylcellulose supplemented with hematopoietic cytokines for 14 days. The number of CFU-B obtained was measured by microscopy based on morphological criteria. 7 primary AML blood samples were analyzed. Each symbol represents a specific patient sample. Lines represent the median. *p<0.05. CFU-B: Blast colony-forming units.
Taking into account that 5HTR antagonists reduced the cell viability of the most primitive AML population, the clonogenic capacity upon treatment was investigated. Primary patient AML samples were cultured in the presence of Apomorphine and Methiothepin for 18 h and plated in a semi-solid methylcellulose media for 14 days in the presence of instructive cytokines at a concentration of fifty thousand cells per mL. Colonies were counted by light microscopy based on morphology and cellularity.

[2] = tested on: healthy haematopoietic stem/progenitor cells; experiment: Clonogenic capacity of lineage-depleted umbilical cord blood cells; format: cell-based, human; settings: 10 μM for 18 h, then 14 days in methylcellulose
Method: FIG. 11. […] Cells were then cultivated in Methylcellulose supplemented with haematopoietic cytokines for 14 days. The number of colonies obtained was measured by microscopy based on morphological criteria. A. Total number of colonies is represented. CFU: colony-forming units. B. Frequency of each colony subtype is shown (CFU-Mix, Mix lineaged colony; CFU-GM, granulo-monocyte colony; CFU-G, granulocyte colony; CFU-M, monocyte colony; BFU-E erythrocyte blast colony). 4 primary umbilical cord blood samples were analyzed.
Next, lineage-depleted umbilical cord blood cells were treated with Apomorphine or Methiothepin as done above for AML cells. 14 days after plating, colonies were counted by light microscopy based on morphology and cellularity.

[3] = tested on: primary CFU-Bs from AML patients; experiment: Secondary CFU replating of pretreated primary AML CFU-Bs; format: cell-based, human; settings: primary CFUs pretreated with 10 μM, replated 14 days without drug
MonoMac-1 cells = experiment: In vivo xenotransplantation mouse model (NSG mice injected with MonoMac-1 cells); settings: IP every other day, day 7 to 14; apomorphine 5 mg/kg, methiothepin 0.1 mg/kg; versus vehicle
Method: FIG. 15. Treatment with 5HTR1 antagonists reduce AML burden in an in vivo xenotransplantation mouse model. 6-8 week-old NOD.Cg-Prkdc^scid Il2rg^tm1Wj1/SzJ (NSG) mice were myeloablated with busulfan (30 mg/kg IP) at day 0. At day 1, 10^6 MonoMac-1 cells were injected IV. From day 7 to day 14, mice were treated IP every other day with apomorphine (5 mg/kg) or methiothepin (0.1 mg/kg), while control mice were treated with saline vehicle (0.9% NaCl). At day 15, mice were sacrificed and their bones (iliac crests, femurs and tibias) were harvested and analyzed for the presence of human cells. Bone marrow samples were measured by flow cytometry. Frequency of human CD45 positive cells (upper panel) and total human CD45 positive cells (lower panel) in BM refer to control. Bars represent the mean value. Error bars represent SEM. **p<0.01; ***p<0.001.
Leukemia cells mainly reside in the bone marrow niche where the stroma cell compartment provides paracrine signaling that strongly mediates their survival and proliferation and protects them from apoptosis ( ). Accordingly, conditioned immunodeficient NOD.Cg-Prkdc^scid Il2rg^tm1Wj1/SzJ (NSG) mice (Sanchez et al Leukemia. 2009 November; 23(11):2109-17) were transplanted with human AML cells and left for 7 days for the leukemia to be established. […]

[4] = tested on: primary AML patient cells; experiment: Engraftment of ex vivo treated primary AML cells in NSG mice; design: species or system mouse; settings: ex vivo 10 μM for 18 h; bone marrow 8 weeks after transplantation; versus vehicle
Method: (§1) FIG. 16. 5HTR antagonist treatment reduces the leukemia regeneration capacity of primary AML cells, whilst sparing healthy hematopoietic stem/progenitor cells. 1-10×10^6 primary AML patient cells or 10-14×10^4 lineage-depleted CB cells were ex vivo treated (10 μM apomorphine, 10 μM methiothepin or vehicle control) for 18 h in IMDM supplemented with 5% heat-inactivated fetal bovine serum and hematopoietic cytokines. Cells were injected IV in previously busulfan (30 mg/kg)-conditioned NSG mice and left 8 weeks untreated. Mice were sacrificed and their bones (iliac crests, femurs and tibias) were harvested and analyzed for the presence of human leukemia (upper panel) or healthy blood (lower panel) cells by flow cytometry. Four AML patient samples and three umbilical cord blood (UCB) samples were tested. *p<0.05; **p<0.01.
(§2) Leukemia-initiating cells (LIC) or LSCs are responsible for the engraftment of AML cells in xenograft mouse models and are thought to initiate and maintain the disease in humans. Primary AML patient samples were treated ex vivo with 5HTR antagonists for 18 h and transplanted into conditioned immunodeficient NSG mice. Eight weeks after transplantation, murine bone marrow was analyzed for the presence of human AML cells.

[5] = tested on: lineage-depleted UCB cells; experiment: Engraftment of ex vivo treated lineage-depleted UCB cells in NSG mice; design: species or system mouse; settings: ex vivo 10 μM for 18 h; 8 weeks after transplantation
Method: as §1, §2

engrafted healthy HSCs = experiment: CFU assay of engrafted healthy HSCs; format: cell-based; settings: engrafted human cells from primary transplanted mice
Method: FIG. 17. Treatments with 5HTR antagonists reduce the leukemia regeneration capacity of primary AML samples in secondary recipient, without affecting normal hematopoiesis. Upper panel. 3-10×10^5 engrafted bone marrow cells from primary transplanted mice were injected intravenously into secondary recipients (conditioned NSG mice) and left untreated for 8 weeks. Bone marrow cells were analyzed as in FIG. 16. Frequency of human CD45 positive cells referred to control is represented. Lower panel. 50×10^3 engrafted human cells were screened for CFUs. The normalized number of CFUs obtained is represented. *p<0.05; ***p<0.005; ****p<0.0001.
In order to assay the in vivo self-renewal capacity remaining in the engrafted samples, secondary transplants were performed. Less than 35% of AML cells were detected in mice injected with apomorphine- or methiothepin-treated cells (FIG. 17).

healthy blood cells = settings: 0.1, 1 and 10 μM, 24 h or 72 h; healthy donor peripheral blood
[6] = tested on: primary haematopoietic stem/progenitor cells; experiment: Viability of lineage-negative umbilical cord blood cells; settings: 10 μM, 24 h

CN1CCc2cccc3c2[C@H]1Cc1ccc(O)c(O)c1-3 [Apomorphine, (6aR)-6-methyl-5,6,6a,7-tetrahydro-4H-dibenzo[de,g]quinoline-10,11-diol]
myeloid markers (CD11b, CD14, CD15) on primary AML patient samples [1]: induced the upregulation of myeloid markers; also recorded: induced myeloid differentiation | clonogenic capacity of primary AML samples (number of CFU-B) (primary AML samples): reduced the clonogenic capacity | clonogenic capacity of healthy haematopoietic stem/progenitor cells (total colonies, frequency of CFU subtypes) [2]: None of the 5HTR antagonists affected the clonogenic capacity | clonogenic capacity in secondary CFUs [3]: a reduction in the clonogenic capacity was observed | AML burden in bone marrow (MonoMac-1 cells): significant reduction in AML burden | homing and engraftment capacity of treated AML cells [4]: less homing and engraftment capacity | normal hematopoietic regeneration capacity of lineage-depleted UCB cells [5]: negligible effect | clonogenic capacity of engrafted healthy HSCs (CFU assays) (engrafted healthy HSCs): little effect | healthy blood cell viability (healthy blood cells): remains unaffected | viability of healthy haematopoietic stem/progenitor cells [6]: remain unaffected
